The values that follow come from patent publication US20120164148A1, “Compositions Containing JARID1B Inhibitors and Methods for Treating Cancer” (The Wistar Institute, priority 2009, published 2012).

In data set [1] the test system is JARID1B. Nature of the data set: Validation of JARID1B shRNA knockdown clones (RNA, protein, BrdU, MTS, cell counts). As to conditions: out of five shRNA clones. It is filed as cell-based, human. An excerpt:
Melanoma Samples and Cell Culture. Fresh human melanoma tissues and cells were obtained according to standard procedures, isolated and maintained in 2% fetal bovine serum (FBS)-substituted melanoma medium (‘Tu2%’) Smalley, et al. (2005) Am. J. Pathol. 166:1541-1554; Satyamoorthy, et al. (1997) Melanoma Res. 7 Suppl 2:S35-42). According to the isolation of neural stem cells and cancer stem cells from brain tumors by culturing of neurospheres (Yuan, et al. (2004) Oncogene 23:9392-9400; Galli, et al. (2004) Cancer Res. 64:7011-7021), melanoma spheres were propagated in mouse embryonic fibroblast (MEF)-conditioned human embryonic stem cell medium (hESCM) according to conventional methods (Fang, et al. (2005) supra). Before use, MEF-conditioned hESCM was mixed with fresh hESCM medium at a 7:3 ratio (‘hESCM4’) and basic fibroblast growth factor was added at 4 ng/ml. Depending on the cell line, sphere formation could be observed 2-6 weeks after starting culture in hESCM4. Spheres were dissociated by collagenase I/IV (Sigma, St. Louis, Mo.) and mechanical treatment, i.e., 200-250 units per ml DMEM (Cellgro) at 37° C. for 10 minutes plus subsequent pipetting. […]
Given the paradox of an increased in vitro self-renewal capacity without any effect on in vivo tumor initiation, it was determined whether JARID1B still could be important for the continuous maintenance of melanomas. […]

Data set [2] deals with WM3734 melanomas. Nature of the data set: Bortezomib treatment of xenotransplanted WM3734 melanomas with JARID1B knockdown. Conditions: 20 μg bortezomib intraperitoneally on days 20, 22, 25, 27; JARID1B knocked-down tumors vs sh scrambled control; p=0.024 (MANOVA). It is filed as in vivo, NOD/LtSscidIL2Rγ^null mice. As for the experimental part:
Xenotransplanted WM3734 melanomas (mean tumor volume ˜200 mm^3) were treated with 20 μg bortezomib (dissolved in PBS and injected intraperitoneally) on days 20, 22, 25, and 27 after xenotransplantation.
Xenotransplantation Assays and Metastasis Model. To address continuous tumor maintenance in vivo, serial xenotransplantation assays with JARID1B knockdown vs. control cells were performed in NOD/LtSscidIL2Rγ^null mice. For every passage, 10^4 cells in MATRIGEL®/Tu2% at a 1:1 dilution were injected subcutaneously in mice (5 mice per sample). One passage included: injection, tumor growth, tumor dissection, cell isolation (mechanical and collagenase I/IV treatment) and purification. Melanoma cell purification was done by three-day-puromycin treatment confirmed by MCAM flow cytometry. Verification of knockdown was carried out by QRT-PCR. […] Tumor growth was measured weekly using a caliper and was terminated when the first tumor of the series reached 1000 mm^3. Metastatic progression was measured in a spontaneous metastasis model. […] Formalin-fixed, paraffin-embedded (FFPE) sections of whole lungs were H&E-stained and the numbers of macro- and micrometastases were microscopically determined (20× magnification). Two representative frontal sections per lung were analyzed. […]

The subject of data set [3] is WM3734^JARID1Bprom-EGFP cells. Nature of the data set: Drug treatment of WM3734 JARID1Bprom-EGFP cells, flow cytometry of J/EGFP+ subpopulation and viable cells. The data set is classed as cell-based, human. As to conditions: 72 hours of treatment, clinically relevant doses; threshold set at 5% (DMSO control). As to the method:
Left panels, Relative enrichment of the J/EGFP+subpopulation after 72 hours of treatment with a BRAF inhibitor (PLX4720), bortezomib (VEL), temozolomide (TMZ), or salinomycin (SAL) as determined by flow cytometry. The threshold (dotted line) for the J/EGFP+ subpopulation was set at 5% (DMSO control) based on JARID1B expression studies. Depicted box plots represent three independently performed experiments with flow cytometric determination of J/EGFP expression beyond the indicated threshold. Right panels, The number of viable cells within the total population was decreasing during drug treatment.
Flow Cytometry and Fluorescence Activated Cell Sorting. For detection of JARID1B promoter-driven EGFP signals, adherent cells were harvested with 0.05% trypsin and spheres were dissociated as described herein. Dead cells were excluded by staining for 7-AAD. After sorting, aliquots were microscopically checked and were cultured for a short-time to exclude disproportional enrichment of debris or apoptotic cells. Fluorescence-activated cell sorting was carried out using a CYTOMATION MOFLO cytometer (DakoCytomation). Flow cytometric detection of surface markers was done according to standard procedures. Briefly, cells were fixed in 4% paraformaldehyde (PFA) in PBS for 10 minutes and then were blocked with 1% BSA in PBS for 10 minutes at room temperature. Primary and secondary antibodies were incubated for 10 minutes at room temperature. Before and after antibody incubations, cells were washed three times with 1% BSA in PBS. Samples were analyzed using an EPICS XL instrument (Beckman-Coulter). Monoclonal antibodies were follows: anti-CD20 (APC-conjugated; BD PHARMINGEN), anti-CD133 (PE; Miltenyi Biotech), anti-p75/NGFR (APC; Miltenyi Biotech), and anti-MCAM (FITC; R&D Systems). Isotype-matched mouse APC- (BD PHARMINGEN), PE- (R&D Systems), or FITC-conjugated (R&D Systems) antibodies were used as controls. Flow cytometric isolation of side population cells was performed according to established methods (Goodell, et al. (1996) J. Exp. Med. 183:1797-1806). […]
Background: A flow cytometer gives signals particle by particle.

Regarding “sh JARID1B—58: shRNA clone from Sigma targeting the 3′UTR of JARID1B, SEQ ID NO:15 (CCGGCCCACCAATTTGGAAGGCATTCTCGAGAATGCCTTCCAAATTGGTGGGTTTTT)”, in data set [1], the knockdown phenotype entry is on record as “significant knockdown phenotypes”.
As to `CC(C)C[C@H](NC(=O)[C@H](Cc1ccccc1)NC(=O)c1cnccn1)B(O)O` [bortezomib], the tumor volume result in data set [2] is reported as “significantly lower tumor volume”. In data set [3], the “relative enrichment for the J/EGFP+ subpopulation” value was “relative enrichment for the J/EGFP+ subpopulation”.
In the case of “JARID1B—62: shRNA clone from Sigma targeting the coding sequence of JARID1B, SEQ ID NO:14 (CCGGCGAGATGGAATTAACAGTCTTCTCGAGAAGACTGTTAATTCCATCTCGTTTTT)”, the knockdown phenotype result in data set [1] is “significant knockdown phenotypes”.
Consider `CC[C@@H](C(=O)[C@@H](C)[C@@H](O)[C@H](C)[C@@H]1O[C@@H]([C@@H](CC)C(=O)O)CC[C@@H]1C)[C@H]1O[C@]2(C=C[C@@H](O)[C@]3(CC[C@@](C)([C@H]4CC[C@](O)(CC)[C@H](C)O4)O3)O2)[C@H](C)C[C@@H]1C` [salinomycin], for which, in data set [3], the “relative enrichment for the J/EGFP+ subpopulation” value is “relative enrichment for the J/EGFP+ subpopulation”.
On the same count and under the same terms, the entry for `CCCS(=O)(=O)Nc1ccc(F)c(C(=O)c2c[nH]c3ncc(Cl)cc23)c1F` [PLX7420] is “relative enrichment for the J/EGFP+ subpopulation”.
